Experimental data as given in article PMC3579865, “An Albumin-Derived Peptide Scaffold Capable of Binding and Catalysis” (PLoS ONE, 2013).

Molecular target: T1, human serum albumin (HSA) (Homo sapiens, UniProt P02768)
T1 construct: gene ALB; native full-length HSA, essentially fatty acid free; also measured on GST-HSA100 (A194 to E294)
Test: tryptophan fluorescence quenching titration (Stern-Volmer and Hill analysis)
Assay type: binding

T1 sequence (P02768 25-609): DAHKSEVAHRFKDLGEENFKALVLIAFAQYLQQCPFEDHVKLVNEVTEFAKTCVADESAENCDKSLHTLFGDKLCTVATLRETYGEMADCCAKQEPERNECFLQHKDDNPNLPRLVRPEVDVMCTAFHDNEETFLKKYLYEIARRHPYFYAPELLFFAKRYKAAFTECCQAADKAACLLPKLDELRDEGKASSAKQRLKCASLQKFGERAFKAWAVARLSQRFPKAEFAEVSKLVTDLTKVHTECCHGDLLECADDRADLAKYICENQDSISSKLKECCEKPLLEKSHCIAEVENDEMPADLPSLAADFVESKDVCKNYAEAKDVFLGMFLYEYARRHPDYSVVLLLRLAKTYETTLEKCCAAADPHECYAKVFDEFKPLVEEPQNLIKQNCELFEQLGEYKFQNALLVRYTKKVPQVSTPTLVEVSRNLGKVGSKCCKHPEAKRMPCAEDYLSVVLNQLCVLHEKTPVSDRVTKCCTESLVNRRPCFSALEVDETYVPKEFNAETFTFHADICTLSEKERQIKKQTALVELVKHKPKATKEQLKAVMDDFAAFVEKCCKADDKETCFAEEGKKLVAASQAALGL

In the case of `O=C1Nc2ccc(Cl)cc2[C@@](C#CC2CC2)(C(F)(F)F)O1` [2a, efavirenz], the “Efavirenz / HSA” value was 1.89±0.04 10^−4 molL^−1.
